Measured values from US20100068747A1, “Generic Assay for Monitoring Endocytosis” (Evotec Technologies GmbH, priority 2005, published 2010).
Entries after “also recorded” stand apart in the source; their conditions may differ.

Tests used:
U2OS/ETAR-GFP cells [1] = assay: Lectin labeling of fixed cells, U2OS/ETAR-GFP; assay type: cell-based, human; conditions: TRITC-lectin 10 nM and 20 nM
Protocol: Lectin labeling of fixed cells was conducted as follows: To detach confluent cells in order to prepare experiments for internalization studies, cells were always treated with EDTA solution instead of trypsin solution. For all seeding, washing, and labeling steps in 96-well plates a working volume of 100 μl per well was assessed. Cells were seeded out into a 96-well plate at different concentrations. U2OS/ETAR-GFP suspensions were adjusted to yield 2*10^4 cells/well, both of the CHO cell lines must be at 2.5*10^4 cells/well. Cells became confluent after 24 hours of incubation. In the following, they were washed with phosphate buffered saline (PBS) and fixed with 3% PFA for 20 minutes at RT. Then, cells were washed again with PBS and incubated in 10 nM and 20 nM solutions of each TRITC-lectin candidate in PBS, respectively. Again, cells were washed with PBS to remove excess lectin, and wells were refilled with PBS for analysis. For specificity controls, lectin solutions were incubated for 30 minutes prior to the application with an excess of the monosaccharide that represents the respective glyco-epitope.
(§1) The following microscopy and image analysis techniques were employed. When utilizing the epifluorescence microscope magnifications were adjusted according to the purpose of observation, e.g. single cell vs. cell collective. Concerning the filters U-MNU was used for Hoechst, U-MSWB for GFP, and U-N41007 for TRITC detection. Hoechst images were taken at 50 ms exposure time, GFP images at 100 to 200 ms and TRITC images needed 500 to 1000 ms. Overlay images were assembled with AnalySIS and tuned in color intensity to obtain the desired color contrast. Images taken to compare two experimental conditions, e.g. control vs. stimulus, featured identical exposure parameters. If possible, well areas were chosen that reflect similar states of confluence. Utilizing the Opera confocal fluorescence imager, the instrument was calibrated running standard methods for skew cropping (spatial camera alignments) and camera intensity normalization.

[2] = tested on: CHO/PAR-2 cell membrane protein; assay: Lectin blotting of PAR-2 membrane sample; assay type: binding
Protocol: Membrane preparation was conducted as follows: Cells were cultured in five T175 flasks until confluency. Confluent cells were detached by applying 3 ml of EDTA solution onto the PBS washed cells. Following a 20-minute incubation at 37° C. and 5% CO2, cells were resuspended in 12 ml of starvation medium (standard medium without FCS), counted, and centrifuged in a Heraeus Megafuge 1.0R at 133 rcf for 4 minutes. All subsequent steps were carried out on ice and with ice cold solutions. After unification of all pellet fractions, hypotonic lysis buffer was added to the cells at a ratio of 1 ml per 5*10^7 cells. Additionally, protease inhibitor cocktail was added to 50 μl per 5*10^7 cells. Cells were homogenized with 30 strokes in a 5 ml potter on ice, centrifuged at 4° C. and 917 rcf for 10 minutes, and the supernatant was stored in an ultracentrifuge tube on ice. The pellet fraction was homogenized and centrifuged once again as described above. The supernatants of both procedures were unified and centrifuged at 4° C. and 100,000 rcf for 45 minutes in a Sorvall ultra-centrifuge. The supernatant of this centrifugation procedure was withdrawn and the pellet dissolved in 0.5 ml or 1.0 ml modified SDS PAGE loading buffer containing Tris-HCl, SDS, glycerol, but no β-mercapto-ethanol or dyes and stored in small aliquots of 50 μl at −20° C.
SDS-Page of membrane samples was conducted as follows: Discontinuous 12% polyacrylamide gels were prepared according to a standard protocol. Broad range marker and 25 μg membrane protein were mixed 1:1 with loading buffer and loaded five times onto a mini gel in alternating order. The gels were run at U=100 V for the first 20 minutes. Subsequently, voltage was increased to U=150 V. The run was aborted as soon as the pyronin G band reached the end of the gel. For coomassie staining, gels were put in coomassie staining solution on a shaker at low revolutions for 45 min. The staining solution was removed and the gel incubated with destaining solution for one to two hours, exchanging the solution several times until the desired contrast was obtained.
Blotting of membrane samples was conducted as follows: For blotting, 3 mm packs of Whatman papers were extensively soaked in one of the diverging blotting buffers, AB I, AB II, and CB, and a pile was assembled in a semi-dry Trans-Blot 3D system from Bio-Rad as depicted in the sketch of FIG. 2. Hybond nitrocellulose membrane was submerged in AB II prior to assembly. To smooth out any air bubbles from the pile, a Pasteur pipette was rolled several times over the top layer. The apparatus was closed and ran at U=25 V for 45 minutes. Then, the pile was disassembled, the membrane submerged in Ponceau S solution and gently swayed for 2 minutes. For destaining, ddH2O was substituted for the staining solution, and the membrane was briefly rinsed twice. After drying under ambient conditions, the marker bands were marked with a ballpoint-pen. The membrane was cut into slices each displaying one marker and one sample lane.
Probing of membrane samples was conducted as follows: For classical western blotting, membranes were blocked in PBS containing 5% low fat dried milk powder. They were placed on a rotating shaker at low revolutions for 1 hour. Subsequently, membranes were sealed in plastic bags with blocking solution additionally containing 1 μg/ml anti-PAR-2 antibody (1:400) or 0.5 μg/ml of anti-ETAR antibody (1:500), depending on the respective recombinant cell type used for the sample. […]

U2OS/ETAR-GFP cells [3] = assay: Lectin labeling of live cells, U2OS/ETAR-GFP; assay type: cell-based, human; conditions: TRITC-lectin, 10 nM at maximum
Protocol: (§2) Lectin labeling of live cells was conducted as follows: Cells were seeded as described above. After 24 hours cells were washed once with PBS and incubated in the incubator for another 2 hours in the respective standard medium without serum supplement to deprive them of serum factor mediated stimuli. This step was termed starvation period. Subsequently, cells were washed gently with PBS and incubated with 37° C. tempered assay medium comprised of Hank's Balanced Salt Solution (HBSS) pH 7.4, containing 20 mM HEPES and 30 mM D-glucose. The plate was left at RT for 30 minutes to slowly level its temperature and, thus, avoid capturing of temperature drop induced membrane dynamics. This period was termed leveling period. Then, assay medium was withdrawn and wells refilled with TRITC-lectin solutions at RT to start cell labeling. Several lectin concentrations in the low nano-molar range were tested. Molar concentrations were calculated from the data provided by Vector Labs. The plate was placed on a rotating shaker at low revolutions for 10 minutes while incubating. The start of the lectin incubation is referred to as assay starting point with t=0 min. After the 10 min incubation period the cells were gently washed with PBS and wells refilled with assay buffer at RT. Instantly thereafter, fluorescence signals were monitored predominately using the epifluorescence microscope.
as §1

CHO/PAR-2 cells = assay: Lectin labeling of live cells, CHO/PAR-2; assay type: cell-based; conditions: TRITC-lectin, 10 nM at maximum
Protocol: as §2, §1

U2OS/ETAR-GFP cells [4] = assay: Lectin labeling of live cells, U2OS/ETAR-GFP; assay type: cell-based, human

## succinylated Triticum vulgaris (wheat germ) agglutin [sWGA]
U2OS/ETAR-GFP cells [1]
  Staining of U2OS/ETAR-GFP: extensive fluorescence was observed at the cell surface
[2]; PAR-2 sample
  striking bands below 35 kDa: at least nine
[2]; biotinylated lectin 5 μg/ml
  band at the same height as the western band (55 kDa, anti-PAR-2): one at the same height as the western band; also recorded: intense band
[2]; biotinylated lectin 5 μg/ml, exposure one to five minutes
  bands detected above 35 kDa: two
U2OS/ETAR-GFP cells [3]
  Live cell staining of U2OS/ETAR-GFP: spot formation
CHO/PAR-2 cells
  Live cell staining of CHO/PAR-2: spot formation
U2OS/ETAR-GFP cells [4]; pH 6.8, U2OS cells
  delay in spot formation: 20 min
U2OS/ETAR-GFP cells [4]; pH 8.0, U2OS cells
  spot formation at increased pH: accelerated
